Laboratory results published in the supplement of paper PMC11061612.

Tests used:
AZD2811 = compound: CCN(CCO)CCCOc1ccc2c(Nc3cc(CC(=O)Nc4cccc(F)c4)[nH]n3)ncnc2c1 [AZD2811]; details: max 1 µM
Outline: (§1)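 Cancer cell lines were seeded into 1536-well plates in 7.5 μl medium (DMEM/F12 or RPMI, 10% FBS), held 24 hours at 37°C and 5% CO2, and dosed for 72 hours with final DMSO typically 0.2%. Luminescence from CellTiter-Glo 2.0, scaled between blank-well and DMSO-well means, served as viability. The single-agent IC50 was obtained from dose-response fits with a non-linear mixed effects model, each fit being a two-parameter logistic curve.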

Crizotinib = compound: C[C@@H](Oc1cc(-c2cnn(C3CCNCC3)c2)cnc1N)c1c(Cl)ccc(F)c1Cl [Crizotinib]; details: max 10 µM
Outline: as §1

AZD4320 = compound: CN(CC[C@H](CSC1=CC=CC=C1)NC2=C(C=C(C=C2)S(=O)(=O)NC(=O)C3=CC=C(C=C3)N4CCC(CC4)[C@H](C5=CC=CC=C5C6=CC=C(C=C6)Cl)O)S(=O)(=O)C(F)(F)F)CCO [AZD4320]; details: max 1 µM
Outline: as §1

[1] = compound: O=C(Nc1ccc2[nH]nc(-c3ccncc3)c2c1)[C@@H]1CCN(CC(=O)N2CCN(c3ccc(-c4ncccn4)cc3)CC2)C1; details: max 5 µM
Outline: as §1

AZD6738 = compound: C[C@@H]1COCCN1C2=NC(=NC(=C2)C3(CC3)[S@](=N)(=O)C)C4=C5C=CNC5=NC=C4 [AZD6738]; details: max 10 µM
Outline: as §1

SN-38 = compound: CCc1c2c(nc3ccc(O)cc13)-c1cc3c(c(=O)n1C2)COC(=O)[C@]3(O)CC [SN-38]; details: max 0.3 µM
Outline: as §1

AZD0156 = compound: CN(C)CCCOc1ccc(-c2ccc3ncc4c(c3c2)n(C2CCOCC2)c(=O)n4C)cn1 [AZD0156]; details: max 3 µM
Outline: as §1

Prexasertib = compound: COc1cccc(OCCCN)c1-c1cc(Nc2cnc(C#N)cn2)n[nH]1 [Prexasertib]; details: max 1 µM
Outline: as §1

Venetoclax = compound: CC1(C)CCC(CN2CCN(c3ccc(C(=O)NS(=O)(=O)c4ccc(NCC5CCOCC5)c([N+](=O)[O-])c4)c(Oc4cnc5[nH]ccc5c4)c3)CC2)=C(c2ccc(Cl)cc2)C1 [Venetoclax]; details: max 1 µM
Outline: as §1

Savolitinib = compound: C[C@@H](c1ccc2nccn2c1)n1nnc2ncc(-c3cnn(C)c3)nc21 [Savolitinib]; details: max 1 µM
Outline: as §1

MK-2206 = compound: NC1(c2ccc(-c3nc4ccn5c(=O)[nH]nc5c4cc3-c3ccccc3)cc2)CCC1 [MK-2206]; details: max 10 µM
Outline: as §1

Paclitaxel = compound: CC(=O)O[C@H]1C(=O)[C@@]2(C)[C@H]([C@H](OC(=O)c3ccccc3)[C@]3(O)C[C@H](OC(=O)[C@H](O)[C@@H](NC(=O)c4ccccc4)c4ccccc4)C(C)=C1C3(C)C)[C@]1(OC(C)=O)CO[C@@H]1C[C@@H]2O [Paclitaxel]; details: max 3 µM
Outline: as §1

Palbociclib = compound: CC(=O)c1c(C)c2cnc(Nc3ccc(N4CCNCC4)cn3)nc2n(C2CCCC2)c1=O [Palbociclib]; details: max 10 µM
Outline: as §1

AZD5991 = compound: Cc1c2c(nn1C)CSCc1cc(n(C)n1)CSc1cc(c3ccccc3c1)OCCCc1c(C(=O)O)n(C)c3c-2c(Cl)ccc13 [AZD5991]; details: max 1 µM
Outline: as §1

5-Fluorouracil = compound: O=c1[nH]cc(F)c(=O)[nH]1 [5-Fluorouracil]; details: max 20 µM
Outline: as §1

Dasatinib = compound: CC1=C(C(=CC=C1)Cl)NC(=O)C2=CN=C(S2)NC3=CC(=NC(=N3)C)N4CCN(CC4)CCO [Dasatinib]; details: max 2 µM
Outline: as §1

Taselisib = compound: Cc1nc(-c2cn3c(n2)-c2ccc(-c4cnn(C(C)(C)C(N)=O)c4)cc2OCC3)n(C(C)C)n1 [Taselisib]; details: max 10 µM
Outline: as §1

AZD5363 = compound: C1CN(CCC1(C(=O)N[C@@H](CCO)C2=CC=C(C=C2)Cl)N)C3=NC=NC4=C3C=CN4 [AZD5363]; details: max 10 µM
Outline: as §1

Olaparib = compound: O=C(c1cc(Cc2n[nH]c(=O)c3ccccc23)ccc1F)N1CCN(C(=O)C2CC2)CC1 [Olaparib]; details: max 10 µM
Outline: as §1

Lapatinib = compound: CS(=O)(=O)CCNCc1ccc(-c2ccc3ncnc(Nc4ccc(OCc5cccc(F)c5)c(Cl)c4)c3c2)o1 [Lapatinib]; details: max 10 µM
Outline: as §1

Selumetinib = compound: Cn1cnc2c(F)c(Nc3ccc(Br)cc3Cl)c(C(=O)NOCCO)cc21 [Selumetinib]; details: max 10 µM
Outline: as §1

AZD1775 = compound: C=CCn1c(=O)c2cnc(Nc3ccc(N4CCN(C)CC4)cc3)nc2n1-c1cccc(C(C)(C)O)n1 [AZD1775]; details: max 3 µM
Outline: as §1

AZD8186 = compound: C[C@@H](Nc1cc(F)cc(F)c1)c1cc(C(=O)N(C)C)cc2c(=O)cc(N3CCOCC3)oc12 [AZD8186]; details: max 10 µM
Outline: as §1

AZD5153 = compound: COc1nnc2ccc(N3CCC(c4ccc(OCCN5CCN(C)C(=O)[C@H]5C)cc4)CC3)nn12 [AZD5153]; details: max 1 µM
Outline: as §1

AZD7648 = compound: Cc1cc2ncnn2cc1Nc1ncc2c(n1)n(C1CCOCC1)c(=O)n2C [AZD7648]; details: max 10 µM
Outline: as §1

SG3199 = compound: CC1=CN2[C@@H](C1)C=NC3=CC(=C(C=C3C2=O)OC)OCCCCCOC4=C(C=C5C(=C4)N=C[C@@H]6CC(=CN6C5=O)C)OC [SG3199]; details: max 0.001 µM
Outline: as §1

Alisertib = compound: COc1cc(Nc2ncc3c(n2)-c2ccc(Cl)cc2C(c2c(F)cccc2OC)=NC3)ccc1C(=O)O [Alisertib]; details: max 10 µM
Outline: as §1

Gemcitabine = compound: Nc1ccn([C@@H]2O[C@H](CO)[C@@H](O)C2(F)F)c(=O)n1 [Gemcitabine]; details: max 0.3 µM
Outline: as §1

Carboplatin = compound: C1CC(C1)(C(=O)[O-])C(=O)[O-].N.N.[Pt+2] [Carboplatin]; details: max 10 µM
Outline: as §1

AZD1390 = compound: CC(C)n1c(=O)n(C)c2cnc3cc(F)c(-c4ccc(OCCCN5CCCCC5)nc4)cc3c21 [AZD1390]; details: max 0.3 µM
Outline: as §1

Etoposide = compound: COc1cc([C@@H]2c3cc4c(cc3[C@@H](O[C@@H]3O[C@@H]5CO[C@@H](C)O[C@H]5[C@H](O)[C@H]3O)[C@H]3COC(=O)[C@H]23)OCO4)cc(OC)c1O [Etoposide]; details: max 10 µM
Outline: as §1

Trametinib = compound: CC(=O)Nc1cccc(-n2c(=O)n(C3CC3)c(=O)c3c(Nc4ccc(I)cc4F)n(C)c(=O)c(C)c32)c1 [Trametinib]; details: max 1 µM
Outline: as §1

SRA737 = compound: N#Cc1cnc(Nc2cc(NC[C@H]3CNCCO3)c(C(F)(F)F)cn2)cn1 [SRA737]; details: max 10 µM
Outline: as §1

Doxorubicin = compound: COc1cccc2c1C(=O)c1c(O)c3c(c(O)c1C2=O)C[C@@](O)(C(=O)CO)C[C@@H]3O[C@H]1C[C@H](N)[C@H](O)[C@H](C)O1 [Doxorubicin]; details: max 1 µM
Outline: as §1

Gefitinib = compound: COc1cc2ncnc(Nc3ccc(F)c(Cl)c3)c2cc1OCCCN1CCOCC1 [Gefitinib]; details: max 10 µM
Outline: as §1

Cell Line	IC50, cell viability 72 h (AZD2811)	IC50, cell viability 72 h (Crizotinib)	IC50, cell viability 72 h (AZD4320)	IC50, cell viability 72 h [1]	IC50, cell viability 72 h (AZD6738)	IC50, cell viability 72 h (SN-38)	IC50, cell viability 72 h (AZD0156)	IC50, cell viability 72 h (Prexasertib)	IC50, cell viability 72 h (Venetoclax)	IC50, cell viability 72 h (Savolitinib)	IC50, cell viability 72 h (MK-2206)	IC50, cell viability 72 h (Paclitaxel)	IC50, cell viability 72 h (Palbociclib)	IC50, cell viability 72 h (AZD5991)	IC50, cell viability 72 h (5-Fluorouracil)	IC50, cell viability 72 h (Dasatinib)	IC50, cell viability 72 h (Taselisib)	IC50, cell viability 72 h (AZD5363)	IC50, cell viability 72 h (Olaparib)	IC50, cell viability 72 h (Lapatinib)	IC50, cell viability 72 h (Selumetinib)	IC50, cell viability 72 h (AZD1775)	IC50, cell viability 72 h (AZD8186)	IC50, cell viability 72 h (AZD5153)	IC50, cell viability 72 h (AZD7648)	IC50, cell viability 72 h (SG3199)	IC50, cell viability 72 h (Alisertib)	IC50, cell viability 72 h (Gemcitabine)	IC50, cell viability 72 h (Carboplatin)	IC50, cell viability 72 h (AZD1390)	IC50, cell viability 72 h (Etoposide)	IC50, cell viability 72 h (Trametinib)	IC50, cell viability 72 h (SRA737)	IC50, cell viability 72 h (Doxorubicin)	IC50, cell viability 72 h (Gefitinib)
HCC70 (Breast Carcinoma)	224 nM	> 10 µM	> 1000 nM	> 5 µM	3000 nM	> 300 nM	> 3000 nM	29.7 nM	> 1000 nM	> 1000 nM	1.92 µM	143 nM	> 10 µM	201 nM	> 20 µM	> 2000 nM	4.26 µM	2 µM	> 10 µM	> 10 µM	> 10 µM	1000 nM	2020 nM	> 1000 nM	> 10 µM	> 1 nM	> 10 µM	> 300 nM	> 10 µM	> 300 nM	> 10 µM	> 1000 nM	5.46 µM	> 1000 nM	> 10 µM
HCC1395 (Breast Carcinoma)	> 1000 nM	> 10 µM	> 1000 nM	> 5 µM	2790 nM	173 nM	> 3000 nM	9.08 nM	> 1000 nM	> 1000 nM	> 10 µM	206 nM	> 10 µM	> 1000 nM	> 20 µM	> 2000 nM	> 10 µM	> 10 µM	> 10 µM	> 10 µM	> 10 µM	965 nM	> 10000 nM	> 1000 nM	> 10 µM	> 1 nM	> 10 µM	> 300 nM	> 10 µM	> 300 nM	> 10 µM	> 1000 nM	2.95 µM	> 1000 nM	> 10 µM
IM-9 (Non-Cancerous)	71.3 nM	0.819 µM	769 nM	0.0727 µM	1040 nM	2.53 nM	> 3000 nM	12.4 nM	> 1000 nM	> 1000 nM	> 10 µM	4.97 nM	4.92 µM	667 nM	5.02 µM	> 2000 nM	> 10 µM	6.7 µM	> 10 µM	7.53 µM	0.218 µM	205 nM	> 10000 nM	89.4 nM	> 10 µM	> 1 nM	0.0265 µM	1.97 nM	> 10 µM	> 300 nM	0.0974 µM	6.11 nM	1.52 µM	52.8 nM	> 10 µM
JHH-2 (Hepatocellular Carcinoma)	> 1000 nM	> 10 µM	> 1000 nM	3.44 µM	6800 nM	77.6 nM	> 3000 nM	57.5 nM	> 1000 nM	> 1000 nM	5.26 µM	365 nM	> 10 µM	> 1000 nM	> 20 µM	188 nM	3.05 µM	4.77 µM	> 10 µM	> 10 µM	> 10 µM	1860 nM	297 nM	> 1000 nM	> 10 µM	> 1 nM	> 10 µM	> 300 nM	> 10 µM	> 300 nM	> 10 µM	181 nM	> 10 µM	> 1000 nM	> 10 µM
JHU-022 (Oral Cavity Carcinoma)	> 1000 nM	> 10 µM	> 1000 nM	2.72 µM	> 10000 nM	35.7 nM	> 3000 nM	94.4 nM	> 1000 nM	> 1000 nM	> 10 µM	2090 nM	> 10 µM	> 1000 nM	> 20 µM	431 nM	0.515 µM	> 10 µM	> 10 µM	1.93 µM	5.56 µM	1640 nM	> 10000 nM	> 1000 nM	> 10 µM	> 1 nM	> 10 µM	278 nM	> 10 µM	> 300 nM	> 10 µM	219 nM	> 10 µM	505 nM	0.811 µM
